The text below walks through data of patent publication US9085555B2, “Complement pathway modulators and uses thereof” (priority 2011, dated 2015).

Counter-ions that a name gives are not always drawn.

The target of the experiment is Factor D (Homo sapiens (Human), UniProt P00746). The experiment is described as follows: biochemical. The settings on record: read-out: IC50. In kind it is biochemical.
Factor D, sequence (P00746 26-253): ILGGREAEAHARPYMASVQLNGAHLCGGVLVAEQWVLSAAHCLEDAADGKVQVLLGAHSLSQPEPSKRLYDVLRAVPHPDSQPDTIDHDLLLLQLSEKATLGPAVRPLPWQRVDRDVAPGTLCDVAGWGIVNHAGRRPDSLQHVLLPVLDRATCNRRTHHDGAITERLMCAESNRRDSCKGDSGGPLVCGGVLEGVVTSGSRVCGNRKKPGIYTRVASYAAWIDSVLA
Consider `CC(=O)c1nn(CC(=O)N2C[C@H](F)[C@@H](O)[C@H]2C(=O)NC2(c3cccc(Cl)c3F)CC2)c2cnccc12` [Example 635, (2S,3S,4S)-1-[2-(3-Acetyl-pyrazolo[3,4-c]pyridin-1-yl)-acetyl]-4-fluoro-3-hydroxy-pyrrolidine-2-carboxylic acid [1-(3-chloro-2-fluoro-phenyl)-cyclopropyl]-amide formate], for which the IC50 was 18 nM.
The result for `NC(=O)n1cc(NC(=O)N2C[C@H](F)C[C@H]2C(=O)NCc2cccc(Cl)c2)c2ccccc21` [Example 8, (2S,4R)-4-Fluoro-pyrrolidine-1,2-dicarboxylic acid 1-[(1-carbamoyl-1H-indol-3-yl)-amide] 2-(3-chloro-benzylamide)] reads 9 nM.
Under `CN(C)[C@H]1C[C@@H](C(=O)NCc2cccc(Cl)c2F)N(C(=O)Nc2cn(C(N)=O)c3ccccc23)C1` [Example 427, 2S,4S)-4-Dimethylamino-pyrrolidine-1,2-dicarboxylic acid 1-[(1-carbamoyl-1H-indol-3-yl)-amide]2-(3-chloro-2-fluoro-benzylamide] stands 665 nM; under `COC(=O)COc1ccc2c(C(N)=O)cn(CC(=O)N3C[C@H](F)C[C@H]3C(=O)NCc3cccc(Cl)c3F)c2c1` [Example 592, (3-Carbamoyl-1-{2-[(2S,4R)-2-(3-chloro-2-fluoro-benzylcarbamoyl)-4-fluoro-pyrrolidin-1-yl]-2-oxo-ethyl}-1H-indol-6-yloxy)-acetic acid methyl ester], 115 nM.
As to “(1R,3S,5R)-2-[2-(3-Acetyl-6- amino-pyrrolo[2,3-b]pyridin-1- yl)-acetyl]-2-aza-bicyclo [3.1.0]hexane-3-carboxylic acid 3-chloro-2-fluoro- benzylamide [Example 676]”, the IC50 worked out at 11 nM.
The result for `CC(=O)c1cn(CC(=O)N2[C@@H]3C[C@@H]3C[C@H]2C(=O)NCc2cccc(Cl)c2F)c2cc(OCc3ccccc3)ccc12` [Example 536, (1R,3S,5R)-2-[2-(3-Acetyl-6-benzyloxy-indol-1-yl)-acetyl]-2-aza-bicyclo[3.1.0]hexane-3-carboxylic acid 3-chloro-2-fluoro-benzylamide] reads 121 nM; that for `NC(=O)n1cc(NC(=O)N2C[C@H](F)C[C@H]2C(=O)Nc2cccc(OC(F)(F)F)c2F)c2ccccc21` [Example 274, (2S,4R)-4-Fluoro-pyrrolidine-1,2-dicarboxylic acid 1-[(1-carbamoyl-1H-indol-3-yl)-amide] 2-[(2-fluoro-3-trifluoromethoxy-phenyl)-amide]], 14 nM.
For `NC(=O)n1cc(NC(=O)N2[C@@H]3C[C@@H]3C[C@H]2C(=O)NCc2ccccc2F)c2cc(OCC(=O)O)ccc21` [Example 391, (1-Carbamoyl-3-{[(1R,3S,5R)-3-(2-fluoro-benzylcarbamoyl)-2-aza-bicyclo[3.1.0]hexane-2-carbonyl]-amino}-1H-indol-5-yloxy)-acetic acid], the IC50 came to 30 nM.
Under `CO[C@H]1[C@@H](C(=O)N[C@H](C)c2cccc(Cl)c2F)N(C(=O)Cn2nc(C(C)=O)c3cccnc32)C[C@@H]1F` [Example 624, (2S,3S,4S)-1-[2-(3-Acetyl-pyrazolo[3,4-b]pyridin-1-yl)-acetyl]-4-fluoro-3-methoxy-pyrrolidine-2-carboxylic acid [(R)-1-(3-chloro-2-fluoro-phenyl)-ethyl]-amide] stands 26 nM; under `NC(=O)c1cn(CC(=O)N2C[C@@](F)(CO)C[C@H]2C(=O)NCc2cccc(Cl)c2F)c2ccccc12` [Example 566, 1-{2-[(2S,4R)-2-(3-Chloro-2-fluoro-benzylcarbamoyl)-4-fluoro-4-hydroxymethyl-pyrrolidin-1-yl]-2-oxo-ethyl}-1H-indole-3-carboxylic acid amide], 436 nM.
The result for `NC(=O)n1cc(NC(=O)N2CC3(CC3)C[C@H]2C(=O)NCc2cccc(Cl)c2)c2ccccc21` [Example 180, (S)-5-Aza-spiro[2.4]heptane-5,6-dicarboxylic acid 5-[(1-carbamoyl-1H-indol-3-yl)-amide] 6-(3-chloro-benzylamide)] reads 650 nM; that for `COC(=O)c1cc(Cl)c(F)c(CNC(=O)[C@@H]2C[C@@H](F)CN2C(=O)Nc2cn(C(N)=O)c3ccccc23)c1` [Example 244, 3-({[(2S,4R)-1-(1-Carbamoyl-1H-indol-3-ylcarbamoyl)-4-fluoro-pyrrolidine-2-carbonyl]-amino}-methyl)-5-chloro-4-fluoro-benzoic acid methyl ester], 17 nM; that for `NC(=O)n1cc(NC(=O)N2C[C@@](F)(CO)C[C@H]2C(=O)NCc2cccc(Cl)c2F)c2ccccc21` [Example 181, (2S,4R)-4-Fluoro-4-hydroxymethyl-pyrrolidine-1,2-dicarboxylic acid 1-[(1-carbamoyl-1H-indol-3-yl)-amide] 2-(3-chloro-2-fluoro-benzylamide)], 20 nM.
The result for `COc1ccc2c(c1)c(C(C)=O)cn2CC(=O)N1C[C@H](F)C[C@H]1C(=O)NCc1cccc(Cl)c1F` [Example 588, (2S,4R)-1-[2-(3-Acetyl-5-methoxy-indol-1-yl)-acetyl]-4-fluoro-pyrrolidine-2-carboxylic acid 3-chloro-2-fluoro-benzylamide] reads 31 nM; that for `NC(=O)n1cc(NC(=O)N2C3CC3C[C@H]2C(=O)NCc2cccc(Cl)c2F)c2cc(F)ccc21` (stereo partly drawn) [Example 294, (1R,3S,5R)-2-Aza-bicyclo[3.1.0]hexane-2,3-dicarboxylic acid 2-[(1-carbamoyl-5-fluoro-1H-indol-3-yl)-amide] 3-(3-chloro-2-fluoro-benzylamide)], 5 nM.
Consider `C[C@@]1(F)C[C@@H](C(=O)NCc2cccc(Cl)c2F)N(C(=O)Nc2cn(C(N)=O)c3ccc(OCCO)cc23)C1` [Example 383, 2S,4R)-4-Fluoro-4-methyl-pyrrolidine-1,2-dicarboxylic acid 1-{[1-carbamoyl-5-(2-hydroxy-ethoxy)-1H-indol-3-yl]-amide}2-(3-chloro-2-fluoro-benzylamide], for which the IC50 amounted to 4 nM.
The result for `NC(=O)n1cc(NC(=O)N2C[C@@H](N)[C@H](O)[C@H]2C(=O)NCc2cccc(Cl)c2F)c2ccccc21` [Example 429, 2S,3S,4R)-4-Amino-3-hydroxy-pyrrolidine-1,2-dicarboxylic acid 1-[(1-carbamoyl-1H-indol-3-yl)-amide]2-(3-chloro-2-fluoro-benzylamide] reads 1040 nM; that for `CC(=O)c1cn(CC(=O)N2C[C@H](F)C[C@H]2C(=O)NCc2cccc(Cl)c2F)c2cc(OC(F)(F)F)ccc12` [Example 509, (2S,4R)-1-[2-(3-Acetyl-6-trifluoromethoxy-indol-1-yl)-acetyl]-4-fluoro-pyrrolidine-2-carboxylic acid 3-chloro-2-fluoro-benzylamide], 58 nM.
Take `N#CCOc1ccc2c(c1)c(NC(=O)N1[C@@H]3C[C@@H]3C[C@H]1C(=O)NCc1cccc(Cl)c1F)cn2C(N)=O` [Example 373, 1R,3S,5R)-2-Aza-bicyclo[3.1.0]hexane-2,3-dicarboxylic acid 2-[(1-carbamoyl-5-cyanomethoxy-1H-indol-3-yl)-amide]3-(3-chloro-2-fluoro-benzylamide]: the IC50 was 1 nM.
Under `CNC(=O)n1cc(NC(=O)N2[C@@H]3C[C@@H]3C[C@H]2C(=O)N[C@H](CN(C)C)c2cccc(Cl)c2F)c2ccccc21` [Example 289, (1R,3S,5R)-2-Aza-bicyclo[3.1.0]hexane-2,3-dicarboxylic acid 3-{[(S)-1-(3-chloro-2-fluoro-phenyl)-2-dimethylamino-ethyl]-amide} 2-[(1-methylcarbamoyl-1H-indol-3-yl)-amide]] stands 555 nM; under `NC(=O)n1cc(NC(=O)N2CCS[C@H]2C(=O)N[C@H](CO)c2cccc(Cl)c2F)c2ccccc21` [Example 253, (S)-Thiazolidine-2,3-dicarboxylic acid 3-[(1-carbamoyl-1H-indol-3-yl)-amide] 2-{[(S)-1-(3-chloro-2-fluoro-phenyl)-2-hydroxy-ethyl]-amide}], 1070 nM.
Under `NC(=O)n1cc(NC(=O)N2C[C@H]3OC3[C@H]2C(=O)NCc2cccc(Cl)c2F)c2ccccc21` (stereo partly drawn) [Example 197, (1S,2S,5R)-6-Oxa-3-aza-bicyclo[3.1.0]hexane-2,3-dicarboxylic acid 3-[(1-carbamoyl-1H-indol-3-yl)-amide] 2-(3-chloro-2-fluoro-benzylamide)] stands 100 nM; under `C[C@@H](NC(=O)[C@@H]1C[C@@H](F)CN1C(=O)Cn1nc(C(N)=O)c2ccncc21)c1cccc(Cl)c1F` [Example 690, 1-(2-{(2S,4R)-2-[(R)-1-(3-Chloro-2-fluoro-phenyl)-ethylcarbamoyl]-4-fluoro-pyrrolidin-1-yl}-2-oxo-ethyl)-1H-pyrazolo[3,4-c]pyridine-3-carboxylic acid amide], 34 nM; under `NC(=O)n1cc(NC(=O)N2NCC[C@H]2C(=O)NCc2cccc(Cl)c2F)c2ccccc21` [Example 432], 7 nM.
`Cc1c(Cl)cccc1CNC(=O)[C@@H]1C[C@H](N)CN1C(=O)Nc1cn(C(N)=O)c2ccccc12` [Example 57, (2S,4S)-4-Amino-pyrrolidine-1,2-dicarboxylic acid 1-[(1-carbamoyl-1H-indol-3-yl)-amide] 2-(3-chloro-2-methyl-benzylamide)]: the IC50 was determined as 1350 nM.
Under `O=C(CO)c1cn(CC(=O)N2[C@@H]3C[C@@H]3C[C@H]2C(=O)NCc2cccc(Cl)c2F)c2ccccc12` [Example 556, (1R,3S,5R)-2-{2-[3-(2-Hydroxy-acetyl)-indol-1-yl]-acetyl}-2-aza-bicyclo[3.1.0] hexane-3-carboxylic acid 3-chloro-2-fluoro-benzylamide] stands 25 nM.
Under `NC(=O)n1cc(NC(=O)N2C[C@@H](N)C[C@H]2C(=O)NCc2cccc3ccccc23)c2ccccc21` [Example 64, (2S,4S)-4-Amino-pyrrolidine-1,2-dicarboxylic acid 1-[(1-carbamoyl-1H-indol-3-yl)-amide] 2-[(naphthalen-1-ylmethyl)-amide]] stands 22400 nM; under `NC(=O)n1cc(NC(=O)N2C[C@H](F)C[C@H]2C(=O)Nc2ncccc2F)c2ccccc21` [Example 327, (2S,4R)-4-Fluoro-pyrrolidine-1,2-dicarboxylic acid 1-[(1-carbamoyl-1H-indol-3-yl)-amide] 2-[(3-fluoro-pyridin-2-yl)-amide]], 1700 nM.
